According to patent US10709688B2, “Agent for treating synucleinopathy” (TOHOKU UNIVERSITY, priority 2016, dated 2020):

Assays:
[1] = system: MPTP Parkinson's disease model C57BL6 N mice; experiment: Test Example 10: cognitive function in MPTP Parkinson's disease model mice; type: in vivo, mouse; conditions: p.o. once every day (Example 1: 0.1, 0.5 or 1.0 mg/kg; others 1.0 mg/kg), four weeks after MPTP, FIG. 10
Description: MPTP (25 mg/kg, i.p.) was administered once every day for 5 consecutive days to a 10 week old male C57BL6 N mice to prepare a Parkinson's disease model mice. […] Four weeks after administration of MPTP, at which time cognitive dysfunction was observed, the cognitive function was evaluated by a novel object recognition test and a passive avoidance test. The passive avoidance test was performed by putting a mouse in a light room and applying electric shock (0.3 mA, 2 second) on the mouse when it entered the dark room in the train run. Twenty four hours later, the mouse was put in the light room again, and the time until the mouse entered the dark room was measured.

GST-FABP4 = GST-FABP4 (Mus musculus (Mouse), UniProt P04117); experiment: Test Example 13: affinity of FABP ligand using ANS, GST-FABP4; conditions: read-out: Kd value of FABP against the ligands, GST-FABP4; ANS fluorescence; average of three measurements±SE
Chain of GST-FABP4 (P04117 whole entry): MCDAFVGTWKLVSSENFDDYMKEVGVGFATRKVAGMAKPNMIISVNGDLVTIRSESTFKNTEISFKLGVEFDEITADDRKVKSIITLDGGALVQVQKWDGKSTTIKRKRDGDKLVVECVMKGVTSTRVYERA
Description: After GST-FABP3 and GST-FABP4 were respectively expressed in the Escherichia coli [BL21 (DE3) strain], affinity purification was performed using a glutathione column.
Purification of the GST binding protein was performed using a GST purification kit (Takara Bio USA). After the Escherichia coli was recovered by centrifuging, the accessory extraction buffer and aluminum oxide powder were added and the mixture was ground in the mortar. The centrifuged supernatant was added to the accessory glutathione column and left stationary on ice for 30 min. Then, the supernatant in the column was thrown away, and the remaining matter was washed with the extraction buffer, and subsequently subjected to elution using an elution buffer including glutathione. The protein concentration of the elution product was calculated from the absorbance at 280 nm, and used as an ANS assay.
The fluorescence intensity at the respective ligand concentrations was converted to a relative value (%) against the ANS fluorescence intensity under the absence of ligand, then the dissociation constant Kd(nM) was calculated by a nonrecurring analysis using the following equation.
F: Relative fluorescence intensity at a certain condition (%);
Ka: Reciprocal of dissociation constant Kd (nM^−1);
Fmax*: Relative fluorescence intensity when FABP is fully occupied by ligands.

[2] = system: dopamine neurons (TH positive cells) of substantia nigra, MPTP model mice; experiment: Test Example 11: dopamine neuroprotection in MPTP Parkinson's disease model mice; type: in vivo, mouse; conditions: p.o. once every day (Example 1: 0.1, 0.3 or 1.0 mg/kg; others 1.0 mg/kg), four weeks after MPTP, FIG. 11
Description: (§1) MPTP (25 mg/kg, i.p.) was administered once every day for 5 consecutive days to a 10 week old male C57BL6 N mice to prepare a Parkinson's disease model mice. […] Four weeks after MPTP administration, at which time a loss in the dopamine neuron and formation of α-synuclein multimers are observed, the mouse was fixed under perfusion to prepare a brain slice 50 μm thick that includes a substantia nigra region.

GST-FABP3 = GST-FABP3 (Mus musculus (Mouse), UniProt P11404); experiment: Test Example 13: affinity of FABP ligand using ANS, GST-FABP3; type: binding; conditions: ANS fluorescence; average of three measurements±SE; read-out: Kd value of FABP against the ligands, GST-FABP3
Chain of GST-FABP3 (P11404 whole entry): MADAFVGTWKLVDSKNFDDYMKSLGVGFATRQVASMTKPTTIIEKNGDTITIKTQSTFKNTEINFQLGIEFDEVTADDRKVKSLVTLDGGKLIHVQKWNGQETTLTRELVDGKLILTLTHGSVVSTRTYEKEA
Description: Pt: FABP protein concentration (=400 nM);

FABP4 = FABP4 (Homo sapiens (Human), UniProt P15090); experiment: Evaluation of FABP4 ligand activity, fluorescent displacement assay using 1,8-ANS (Cayman assay kit); type: binding; conditions: 1,8-ANS displacement; average of two measurements
Chain of FABP4 (P15090 whole entry): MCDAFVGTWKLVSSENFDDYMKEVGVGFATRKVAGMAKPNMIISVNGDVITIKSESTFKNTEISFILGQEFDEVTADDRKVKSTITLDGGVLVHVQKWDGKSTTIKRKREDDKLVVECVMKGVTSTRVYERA
Description: An evaluation of FABP4 was performed using a fluorescent displacement assay using 1,8-ANS, similar to FABP3. Used in the evaluation of FABP4 was an assay kit (FABP4 Inhibitor/Ligand Screening Assay Kit) available from Cayman Chemical Company. Ethanol was used as a solvent for dissolving the compound, and an arachidonic acid which comes with the kit was used as a positive control. The measurement procedure was performed similarly to the aforementioned FABP3 assay.
(§2) Measurement was performed twice each, and the average was adopted as the result. The software, Origin, available from Light Stone was used for calculating IC50.

[3] = system: MPTP Parkinson's disease model mice; experiment: Test Example 8: motor function in MPTP Parkinson's disease model animal; type: in vivo, mouse; conditions: 1.0 mg/kg p.o. daily 2 weeks, three weeks after MPTP, FIG. 8
Description: From 24 hours after the final administration of MPTP, the solvent or FABP3 ligand (compound of Example 3) (1.0 mg/kg, p.o., each group n=7) was administered once every day for 2 weeks. Three weeks after administration of MPTP, at which time motor dysfunction was observed, the motor function was evaluated by a rotarod test and beam walking test. […] It was confirmed in both tests that the ligand administered group was fully recovered from the motor dysfunction that developed after MPTP administration.

FABP3 = FABP3 (Homo sapiens (Human), UniProt P05413); experiment: Evaluation of FABP3 ligand activity, fluorescent displacement assay using 1,8-ANS; type: binding; conditions: 1,8-ANS displacement; average of two measurements
Chain of FABP3 (P05413 whole entry, species assumed): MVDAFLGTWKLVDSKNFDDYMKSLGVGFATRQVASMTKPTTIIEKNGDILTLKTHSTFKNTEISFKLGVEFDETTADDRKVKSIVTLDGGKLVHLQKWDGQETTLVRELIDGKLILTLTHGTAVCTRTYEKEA
Description: Adopted for evaluation in the evaluation of FABP3 ligand activity was a fluorescent displacement assay using 1,8-ANS (1-anilino-8-naphthalenesulfonic acid). Fluorescent materials such as 1,8-ANS are characterized by an increase in the fluorescent intensity under a hydrophobic environment. […] Ethanol was used as the dilution solvent of the compounds.
To each well was added as a detection reagent, a 1,8-ANS (ALDRICH) solution (10 μM, ethanol/sodium phosphate buffer solution=1:4 v/v, 25 μL), and ethanol solutions of compounds diluted to different concentrations were added in an amount of 10 μL each (the final ethanol concentration was 15%). The plate was shaken for 10 sec. in the plate reader and incubated for 10 min. at room temperature. […] Used for measurement was ARVO™ X One by PerkinElmer Japan.
as §2

[4] = system: MPTP Parkinson's disease model C57BL6 N mice; experiment: Test Example 9: motor function in MPTP Parkinson's disease model mice; type: in vivo, mouse; conditions: p.o. once every day (Example 1: 0.1, 0.5 or 1.0 mg/kg; others 1.0 mg/kg), three weeks after MPTP, FIG. 9
Description: MPTP (25 mg/kg, i.p.) was administered once every day for 5 consecutive days to a 10 week old male C57BL6 N mice to prepare a Parkinson's disease model mice. […] Three weeks after administration of MPTP, at which time motor dysfunction was observed, the motor function was evaluated by a rotarod test and beam walking test.

[5] = system: TH and α-synuclein double positive cells of substantia nigra, MPTP model mice; experiment: Test Example 12: suppression of α-synuclein aggregation in MPTP Parkinson's disease model mice; type: in vivo, mouse; conditions: p.o. once every day (Example 1: 0.1, 0.3 or 1.0 mg/kg; others 1.0 mg/kg), four weeks after MPTP, FIG. 12
Description: as §1, with “observed, a” for “observed, the”, “region. The brain slice was reacted with an anti-TH antibody (mouse monoclonal antibody 22941 produced by Immunostar, 1:1000) and an anti-α-synuclein antibody (rabbit polyclonal antibody SC-7011-R produced by Santa Cruz, 1:200) and detected by a fluorescence-labeled, secondary antibody (Alexa 488 anti-rabbit IgG (produced by Jackson ImmunoResearch, 1:500)) to evaluate the number of positive cells.” for “region.”

[6] = system: MPTP Parkinson's disease model C57BL6 N mice; experiment: Test Example 7: cognitive function in MPTP Parkinson's disease model animal; type: in vivo, mouse; conditions: 1.0 mg/kg p.o. daily 2 weeks, four weeks after MPTP, FIG. 7
Description: 1-Methyl-4-phenyl-1,2,3,6-tetrahydropyridine (MPTP, 25 mg/kg, i.p., purchased from Sigma-Aldrich (St Louis, Mo.)), which is a dopamine neurotoxin, was administered once every day for 5 consecutive days to a 10 week old male C57BL6 N mice, to prepare a Parkinson's disease model animal. From 24 hours after the final administration of MPTP, the solvent or FABP3 ligand (compound of Example 3, 1.0 mg/kg, p.o., each group n=7) was administered once every day for 2 weeks. Four weeks after administration of MPTP, at which time cognitive dysfunction was observed, the cognitive function was evaluated by a novel object recognition test.

Kd (GST-FABP4): 6670 ± 1400 nM | Kd (GST-FABP3): 2220 ± 104 nM | IC50 (FABP4): 1660 nM | IC50 (FABP3): 280 nM
Compound: O=C(O)CCCOc1ccccc1-c1cc(-c2ccccc2)n(-c2ccc(Cl)c(Cl)c2)n1 [Example 3, 4-(2-(1-(3,4-Dichlorophenyl)-5-phenyl-1H-pyrazol-3-yl)phenoxy)butanoic acid]
cognitive function by novel object recognition test and passive avoidance test [1]: significant effects | number of TH positive cells (dopamine neurons) [2]: improved significantly | beam walking test, number of footslips [3]: entirely recovered | rotarod test, Latency [3]: recovered fully | beam walking test, number of footslips [4]: improved significantly | rotarod test, Latency [4]: improved significantly | number of TH and α-synuclein double positive cells [5]: tendency towards improvement | novel object recognition test, cognitive dysfunction [6]: such dysfunction was not observed
